Measured values from patent US5117052A, “Physiologically active substances, benastatins A and B, and production and use thereof” (priority 1990, dated 1992).
In brackets after ≈: the same amount, converted by molar mass.

Legend:
[1] = test system: Klebsiella pneumoniae PCI602; test: Agar dilution assay, minimum growth inhibition concentration; type: cell-based; conditions: Klebsiella pneumoniae, PCI602, read-out: Minimum growth-inhibition concentration
[2] = test system: graft versus host reaction (GvH); test: Effect on graft versus host reaction (GvH) in vivo; set-up: species or system mouse (C57BL/6 spleen cells into BDF1 mouse); conditions: for Spleen/body weight / Index (spleen/body weight; non induced = 1.00): subcutaneous, 3 days, day 7; for Index (spleen/body weight; non induced = 1.00): induced = 1.84
From the text: In the graft versus host reaction (GvH), use was made of benastatin B dissolved in physiological saline.
(b) Effect on graft versus host reaction (GvH)
The effect on GvH was estimated according to a modified method based on the method described in M. Simonsen et al, "A study of the graft versus host reaction in transplantation to embryos, F1 hybrids, and irradiated animals", Ann. N.Y. Acad. Sci., 73, 834-841 ([…]).
Spleen cells were taken out from C57BL/6 mouse (female, 10 weeks old) to prepare a murine spleen cell sample containing 5×10^6 spleen cells according to the method as mentioned above. The spleen cell sample was transplanted into the abdominal cavity of BDF1 mouse (7 days old) as the F1 acceptor. The test compound at a predetermined concentration was subcutaneously injected over a period of time of 3 days including the initial day of said transplantation. After 7 days from the inital transplantation, measurements were made about the body weight and the spleen weight of the BDF1 mouse to calculate the ratio (mg/g) of spleen weight (mg) to body weight (g).

[3] = test system: murine spleen cells (Con A-induced lymphocyte blastogenesis); test: Effect on Con A-induced murine lymphocyte blastogenesis in vitro (Test 4); type: cell-based, BALB/c mouse; conditions: Mus musculus, 72 h
Method: (§1) In lymphocyte blast formation reaction, use was made of benastatin B as a solution prepared in a manner, wherein benastatin B was dissolved in methanol and admixed with PBS(-), with the proviso that the concentration of methanol in the final solution was 0.5%.
(§2) (a) Effect on lymphocyte blast formation reaction
(§3) For the cultivation, use was made of RPMI 1640 culture medium supplemented with 20% bovine fetus serum, 25 mM Hepes buffer, 100 μg/ml streptomycin and 100 units/ml penicillin G. The cultivation was carried out in a microplate (COSTAR) with flat bottom and with 96 wells. As the mitogens, lipopolysaccharide (LPS) and concanavalin A (Con A) were used at the final concentrations of 100 μg/ml and 5 μg/ml, respectively.
(§4) Spleen cells were taken out from BALB/c mouse (female, at most 20 weeks old) to prepare a unicellular dispersion of spleen cells. This dispersion was subjected to a hyper shock treatment to remove erythrocytes therefrom. The resulting spleen cell sample was directly used in the test employing LPS. Alternatively, the spleen cell sample was filtered through Nylon Fiber (manufactured by Wako Jun-yaku Co., Ltd.) for removing […] therefrom, and then the cell sample was used in the test employing Con A.
(§5) Each well was charged with 0.2 ml of a test sample containing 2×10^5 murine spleen cells and the test compound at a predetermined concentration. The cultivation was effected for 72 hours. Before 8 hours from the termination of the cultivation, the wells each were charged with 37 KBq of [^3 H]-thymidine in order to determine the amount of thymidine taken into the cells. The effect of the test compound was estimated by comparing the test samples with the control samples, with respect to the amount of [^3 H]-thymidine taken into the cells.

Aspergillus niger F-16 = test: Agar dilution assay, minimum growth inhibition concentration; type: cell-based; conditions: Aspergillus niger, F16, read-out: Minimum growth-inhibition concentration
glutathione transferase = target: T1, glutathione transferase (Rattus norvegicus, UniProt P04905); test: Glutathione transferase inhibition activity (3,4-dichloronitrobenzene/glutathione, absorption at 345 nm); type: biochemical
T1 construct: obtained from a homogenate of rat liver; from tissue; host or cells: rat liver homogenate, partially purified by DEAE-cellulose column and ammonium sulfate salting-out
T1 sequence (P04905 2-218 limits assumed): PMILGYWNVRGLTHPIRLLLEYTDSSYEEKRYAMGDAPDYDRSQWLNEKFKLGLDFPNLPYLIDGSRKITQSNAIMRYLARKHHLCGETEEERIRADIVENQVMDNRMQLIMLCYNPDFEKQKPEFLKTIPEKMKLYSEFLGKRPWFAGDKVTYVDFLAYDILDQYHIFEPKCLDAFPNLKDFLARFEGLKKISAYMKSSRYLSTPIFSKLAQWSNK
Method: The glutathione transferase inhibition activity was determined by a modified method based on the known method described in Biochemical and Biophysical Research Communications, 112, 980-985 (1983).
A test tube was charged with a solution mixture consisting of (a) 0.1 ml of 90 mM glutathione (reduction type), (b) 0.05 ml of 20 mM 3,4-dichloronitrobenzene, (c) 1.7 ml of 0.1M potassium phosphate buffer solution (pH 7.4) and (d) 0.1 ml of an aqueous solution containing the test compound. The solution mixture was heated to 37° C. for 3 minutes, and admixed with 0.05 ml of a glutathione transferase solution to effect a reaction at 37° C. for 30 minutes. The glutathione transferase solution employed was one which had been obtained from a homogenate of rat liver and which had been patially refined by means of a DEAE-cellulose column and of salting out-operation with ammonium sulfate.
After the completion of the reaction, the sample was measured for the light absorption (a) at 345 nm. At the same time, a control sample which was free of the test compound and which contained only the buffer solution was measured for the light absorption (b) at 345 nm.
The glutathione transferase inhibition activity was determined according to the formula: […]
IC50, which is the concentration of a test compound required for 50% inhibition, was recorded.

Candida tropicalis F-1 = test: Agar dilution assay, minimum growth inhibition concentration; type: cell-based; conditions: Candida tropicalis, F1, read-out: Minimum growth-inhibition concentration
[4] = test system: Shigella dysenteriae JS11910; test: as above; type: cell-based; conditions: JS11910, read-out: Minimum growth-inhibition concentration
[5] = test system: murine spleen cells (LPS-induced lymphocyte blastogenesis); test: Effect on LPS-induced murine lymphocyte blastogenesis in vitro (Test 4); type: cell-based, BALB/c mouse
Method: as §1, §2, §3, §4, §5

Proteus rettgeri GN311 = test: Agar dilution assay, minimum growth inhibition concentration; type: cell-based; conditions: Providencia rettgeri, GN311, read-out: Minimum growth-inhibition concentration
[6] = test system: Staphylococcus aureus No. 5 (MRSA); test: as above; type: cell-based; conditions: read-out: Minimum growth-inhibition concentration
[7] = test system: Mycabacterium smegmatis ATCC607; test: as above; type: cell-based; conditions: read-out: Minimum growth-inhibition concentration
Escherichia coli NIHJ = test: as above; type: cell-based; conditions: Escherichia coli, read-out: Minimum growth-inhibition concentration
Salmonella typhi T-63 = test: as above; type: cell-based; conditions: Salmonella enterica
[8] = test system: Saccharomyces cerevisiae F-7; test: as above; type: cell-based; conditions: Saccharomyces cerevisiae, F7, read-out: Minimum growth-inhibition concentration
mouse = test: Toxicity on administration to the abdominal cavity; type: in vivo; conditions: 100 mg/kg
From the text: Benastatins A and B were each administered to the abdominal cavity of a mouse to examine the toxicity thereof.

Pyricularia oryzae = test: microbe, parasite or virus in culture; type: cell-based; conditions: read-out: Minimum growth-inhibition concentration
[9] = test system: Pseudomanas aeruginosa A3; test: Agar dilution assay, minimum growth inhibition concentration; type: cell-based; conditions: read-out: Minimum growth-inhibition concentration
[10] = test system: Staphylococcus aureus No. 17 (MRSA); test: as above; type: cell-based; conditions: read-out: Minimum growth-inhibition concentration
Micrococcus luteus FDA16 = test: as above; type: cell-based
Method: (§6) The minimum of microorganism growth inhibition concentrations of benastatins A and B were determined for various bacteria, east and fungi according to a conventional agar dilution assay method. It will be seen from Table 1 that benastatins A and B have a satisfactory antimicrobial activity, particularly against gram-positive bacteria, etc.

[11] = test system: Staphylococcus aureus Smith; test: as above; type: cell-based
Method: as §6

[12] = test system: Bacillus cereus ATCC10702; test: as above; type: cell-based
Method: as §6

Cochliobolus miyabeanus = test: as above; type: cell-based; conditions: Bipolaris oryzae
Method: as §6

[13] = test system: Cryptococcus neoformans F-10; test: as above; type: cell-based; conditions: F10
Method: as §6

[14] = test system: Bacillus subtilis NRRL B-558; test: as above; type: cell-based; conditions: NRRLB558
Method: as §6

[15] = test system: Corynebacterium bovis 1810; test: as above; type: cell-based
Method: as §6

[16] = test system: Staphylococcus aureus MS9610; test: as above; type: cell-based
Method: as §6

[17] = read-out: Stimulation index Con A
[18] = Mus musculus, Lymphocyte, 72 h, read-out: Stimulation index LPS

CCCCCc1cc2c(c(O)c1C(=O)O)-c1cc3c(c(O)c1CC2)C(=O)c1c(O)cc(O)cc1C3(C)C [Benastatin B, benastatin B]
MIC [1]: > 50 µg/mL | Spleen/body weight ([2]; 0.5 mg/kg): 12.5 ± 2.2 mg/kg | Index (spleen/body weight; non induced = 1.00) ([2]; 0.5 mg/kg): 2.78 | Spleen/body weight ([2]; 5 mg/kg): 11.5 ± 0.8 mg/kg | Index (spleen/body weight; non induced = 1.00) ([2]; 5 mg/kg): 2.56 | Spleen/body weight ([2]; 50 mg/kg): 10.6 ± 1.3 mg/kg | Index (spleen/body weight; non induced = 1.00) ([2]; 50 mg/kg): 2.36 | effect on GvH ([2]; various amounts, strongest in a lower amount): significantly promotes GvH | activity at 3.13 µg/mL ([3]; 3.13 μg/ml, control = 100, read-out: Stimulation index Con A): 106% | activity at 25 µg/mL ([3]; 25 μg/ml, control = 100, read-out: Stimulation index Con A): 1% | activity at 100 µg/mL ([3]; 100 μg/ml, control = 100, read-out: Stimulation index Con A): 0.9% | activity at 6.25 µg/mL [3, 17]: 12.6% | activity at 12.5 µg/mL [3, 17]: 26.8% | activity at 50 µg/mL [3, 17]: 1% | minimal effective concentration ([3]; read-out: concentration that significantly suppresses Con A-induced lymphocyte blast formation): ≥ 6.25 µg/mL | MIC (Aspergillus niger F-16): > 100 µg/mL | IC50 (glutathione transferase): 1830 nM | MIC (Candida tropicalis F-1): > 50 µg/mL | MIC [4]: > 50 µg/mL | activity at 6.25 µg/mL [5, 18]: 138% | activity at 12.5 µg/mL [5, 18]: 58.9% | activity at 50 µg/mL [5, 18]: 0.4% | activity at 3.13 µg/mL ([5]; Mus musculus, Lymphocyte, 72 h, 3.13 μg/ml, control = 100, read-out: Stimulation index LPS): 148% | activity at 25 µg/mL ([5]; Mus musculus, Lymphocyte, 72 h, 25 μg/ml, control = 100, read-out: Stimulation index LPS): 0.2% | activity at 100 µg/mL ([5]; Mus musculus, Lymphocyte, 72 h, 100 μg/ml, control = 100, read-out: Stimulation index LPS): 0.2% | minimal effective concentration ([5]; Mus musculus, Lymphocyte, 72 h, read-out: concentration that significantly suppresses LPS-induced lymphocyte blast formation): ≥ 12.5 µg/mL | effect on LPS-induced lymphocyte blast formation at a low concentration ([5]; low concentration): potentiates | MIC (Proteus rettgeri GN311): 50 µg/mL (≈ 99.5 µM) | MIC [6]: 3.12 µg/mL (≈ 6.21 µM) | MIC [7]: 12.5 µg/mL (≈ 24.9 µM) | MIC (Escherichia coli NIHJ): 100 µg/mL (≈ 199 µM) | MIC (Salmonella typhi T-63): > 50 µg/mL | MIC [8]: > 50 µg/mL | Toxicity (mouse): No toxicity was observed | MIC (Pyricularia oryzae): 50 µg/mL (≈ 99.5 µM) | MIC [9]: 50 µg/mL (≈ 99.5 µM) | MIC [10]: 3.12 µg/mL (≈ 6.21 µM) | MIC (Micrococcus luteus FDA16): 3.12 µg/mL (≈ 6.21 µM) | MIC [11]: 3.12 µg/mL (≈ 6.21 µM) | MIC [12]: 3.12 µg/mL (≈ 6.21 µM) | MIC (Cochliobolus miyabeanus): > 25 µg/mL | MIC [13]: 50 µg/mL (≈ 99.5 µM) | MIC [14]: 3.12 µg/mL (≈ 6.21 µM) | MIC [15]: 3.12 µg/mL (≈ 6.21 µM) | MIC [16]: 3.12 µg/mL (≈ 6.21 µM)
